Experimental data from BindingDB's records for doi:10.7270/Q2TQ5ZZB (Burnham Center For Chemical Genomics, 2010).
Counter-ions that a name gives are not always drawn.

Biological target: G-protein coupled receptor 35 (Homo sapiens, UniProt Q9HC97)
Experiment: inhibition of zaprinast-stimulated GPR35 beta-arrestin translocation – imaging, U2OS, beta-arrestin-GFP, zaprinast agonist, primary screen (AID 2058)

G-protein coupled receptor 35, sequence (Q9HC97 whole entry): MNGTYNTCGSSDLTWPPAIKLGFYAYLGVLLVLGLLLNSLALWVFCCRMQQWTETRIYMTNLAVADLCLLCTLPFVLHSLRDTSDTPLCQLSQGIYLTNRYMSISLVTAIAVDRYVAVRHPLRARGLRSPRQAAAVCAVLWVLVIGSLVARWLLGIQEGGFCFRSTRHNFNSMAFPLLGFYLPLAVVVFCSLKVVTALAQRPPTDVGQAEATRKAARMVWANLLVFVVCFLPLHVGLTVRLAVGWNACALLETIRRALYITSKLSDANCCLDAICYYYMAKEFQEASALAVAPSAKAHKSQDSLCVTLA

IC50 [µM]	SMILES
2.74	COc1cccc(C2C3CN(C)CCC3=C(C#N)C(=N)C2(C#N)C#N)c1OC (stereo not given) [6-Amino-8-(2,3-dimethoxy-phenyl)-2-methyl-2,3,8,8a-tetrahydro-1H-isoquinoline-5,7,7-tricarbonitrile]
0.991	CN1CCC2=C(C#N)C(=N)C(C#N)(C#N)C(c3ccsc3)C2C1 (stereo not given) [6-azanyl-2-methyl-8-thiophen-3-yl-1,3,8,8a-tetrahydroisoquinoline-5,7,7-tricarbonitrile]
12	CN1CCC2=C(C#N)C(=N)C(C#N)(C#N)C(c3cccc(Cl)c3Cl)C2C1 (stereo not given) [6-azanyl-8-[2,3-bis(chloranyl)phenyl]-2-methyl-1,3,8,8a-tetrahydroisoquinoline-5,7,7-tricarbonitrile]
11	CC1(C)Cc2c(ccc3ccccc23)C(CC(=O)N2CCCCC2)=N1 [(2Z)-2-(2,2-dimethyl-1,3-dihydrobenzo[f]isoquinolin-4-ylidene)-1-(1-piperidinyl)ethanone;hydrochloride]
3.08	Oc1ccc(CN=Nc2nc(-c3ccccc3F)nc3ccccc23)c(O)c1 [MLS000778210]
